Source: paper PMC7699199, “Identification and Validation of Carbonic Anhydrase II as the First Target of the Anti-Inflammatory Drug Actarit” (Biomolecules, 2020)

Target: T1, carbonic anhydrase II (CAII) (Homo sapiens, UniProt P00918)
T1 construct: gene CA2
Test: Wilbur-Anderson electrometric CO2 hydration assay with recombinant human CAII
Type: biochemical

IC50: 422 nM
SMILES: CC(=O)Nc1ccc(CC(=O)O)cc1 [actarit]
